Reference: patent publication US8404851B2, “1,3,5-trisubstituted triazole derivative” (Janssen Pharmaceutica NV, priority 2007, dated 2013)

How the values were obtained:
hα7-wt nAChR [1] = biological target: T1, hα7-wt nAChR (Homo sapiens, UniProt P36544); assay: Ca2+ flux imaging (FDSS), PAM activity with choline; format: cell-based; conditions: hα7-wt nAChR-expressing GH4C1 cells; potentiation of choline 100 μM; compound 0.01 μM to 30 μM
T1 construct: expressed in transfected cells
Experimental: Ca^2+ Flux Imaging (FDSS) […]
PAM activity was detected in real time by applying the compound to be tested to the loaded cells along with a α7 nicotinic receptor agonist during constant monitoring of the cellular calcium mobilization by fluorescence in a FDSS. […]
A control response to choline was calculated on each plate from the difference in peak in fluorescence in wells receiving either choline or assay buffer alone. […]
EC50 values (potency), maximal effect (% efficacy), and Hill slopes were estimated by fitting the sigmoidal equation to the data using GraphPad Prism (GraphPad Software, Inc., San Diego, Calif.). An EC50 (or pEC50) was determined as a concentration relating to half the maximal effect, when a clear sigmoidal curve with top plateau was obtained.

hα7-wt nAChR [2] = biological target: T1, hα7-wt nAChR; assay: Whole-cell voltage-clamp recording, PAM activity with choline; format: cell-based; design: key: Type 1 compounds enhance the effect size of the current elicited by 1 mM choline but minimally alter the kinetics of the receptor.; Type 2 compounds enhance the effect size of the current elicited by 1 mM choline while reducing the rate and/or the extent of desensitization.; Type 3 compounds enhance the effect size of the current elicited by 1 mM choline. When tested at higher concentrations up to 10 μM they completely inhibit desensitization; Type 4 compounds allow for an initial desensitization of the receptor followed by a re-opening of the receptor during agonist application; conditions: qualitative kinetic properties, 1 mM choline, GH4C1 cells
Experimental: The compounds of the present invention are classified as type 1-4, based on qualitative kinetic properties, as determined by whole-cell voltage-clamp recordings. This classification is based on the effect of an α7 PAM compound, as described hereinbefore, on the signal elicited by an agonist application. In particular, said agonist is choline at a concentration of 1 mM. In a preferred experimental setting, said α7 PAM compound and choline are simultaneously applied to the cell, as described hereinafter. Desensitization as described hereinafter is the closure of the receptor upon activation during the application of the agonist in whole-cell voltage-clamp electrophysiology measurements seen as the reduction of the […] current after initial activation by the agonist.
The definition of the PAM types 1-4 is described hereinafter: • Type 1 compounds enhance the effect size of the current elicited by 1 mM choline but minimally alter the kinetics of the receptor. In particular, the rate and the extent of desensitization, elicited by the agonist, is not affected. […]
The compound of the present invention also has a potentiating effect on the response to choline when measured by whole-cell voltage clamp electrophysiology in GH4C1 cells stably over-expressing the human wild-type α7 receptor, as described hereinafter. […]

T1 sequence (P36544 23-502): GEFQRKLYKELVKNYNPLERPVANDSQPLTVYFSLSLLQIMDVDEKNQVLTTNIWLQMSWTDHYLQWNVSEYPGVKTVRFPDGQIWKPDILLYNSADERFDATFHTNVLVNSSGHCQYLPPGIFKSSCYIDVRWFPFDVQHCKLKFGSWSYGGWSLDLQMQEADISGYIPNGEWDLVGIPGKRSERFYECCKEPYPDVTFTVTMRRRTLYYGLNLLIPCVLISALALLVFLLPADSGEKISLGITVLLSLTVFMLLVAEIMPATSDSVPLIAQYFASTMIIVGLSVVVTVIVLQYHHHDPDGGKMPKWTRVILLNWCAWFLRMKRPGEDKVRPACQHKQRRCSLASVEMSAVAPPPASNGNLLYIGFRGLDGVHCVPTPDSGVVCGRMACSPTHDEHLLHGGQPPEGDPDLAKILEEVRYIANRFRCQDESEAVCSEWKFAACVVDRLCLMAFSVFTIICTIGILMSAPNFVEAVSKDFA

EC50 (hα7-wt nAChR [1]): 309 nM | melting point: 242.28 °C
Compound: CCNC(=O)Cn1nc(Nc2ccc3c(c2)OC(F)(F)O3)nc1-c1cc(C)nc(C)c1 [Compound E1, 2-[3-(2,2-Difluoro-benzo[1,3]dioxol-5-ylamino)-5-(2,6-dimethyl-pyridin-4-yl)-[1,2,4]-triazol-1-yl]-N-ethyl-acetamide]
PAM_type (hα7-wt nAChR [2]): 2
